This test addresses T1, pSTAT3 (pY705-STAT3) (Homo sapiens, UniProt P40763).
T1 construct: host or cells: cryopreserved PBMC
The test is described as follows: MSD-pSTAT-PBMC Assay (pSTAT3, IL-6 stimulated). In kind it is cell-based. In a few lines:
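Phospho-STAT levels captured on anti-STAT3 or anti-STAT6 plates and detected with anti-pY705 or anti-pY641 antibodies (MSD read-out). Cryopreserved human PBMCs received compound for 3 h before a 10 min pulse of IL-6 (10 ng/mL, STAT3) or IL-4 (1 ng/mL, STAT6). IC50 fitted after unstimulated-background subtraction and DMSO normalization.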

[1] abbreviates: PBMC, compound 3 hrs, then 10 ng/mL IL-6 for 10 min, MSD pY705-STAT3, read-out: pSTAT3.

IC50 data for 16 compounds are collected here from patent US20250215030A1, “STAT MODULATORS AND USES THEREOF” (Recludix Pharma, Inc., priority 2022, published 2025).

Where two headings read alike, the source gives them in different places.

T1 sequence (P40763 whole entry): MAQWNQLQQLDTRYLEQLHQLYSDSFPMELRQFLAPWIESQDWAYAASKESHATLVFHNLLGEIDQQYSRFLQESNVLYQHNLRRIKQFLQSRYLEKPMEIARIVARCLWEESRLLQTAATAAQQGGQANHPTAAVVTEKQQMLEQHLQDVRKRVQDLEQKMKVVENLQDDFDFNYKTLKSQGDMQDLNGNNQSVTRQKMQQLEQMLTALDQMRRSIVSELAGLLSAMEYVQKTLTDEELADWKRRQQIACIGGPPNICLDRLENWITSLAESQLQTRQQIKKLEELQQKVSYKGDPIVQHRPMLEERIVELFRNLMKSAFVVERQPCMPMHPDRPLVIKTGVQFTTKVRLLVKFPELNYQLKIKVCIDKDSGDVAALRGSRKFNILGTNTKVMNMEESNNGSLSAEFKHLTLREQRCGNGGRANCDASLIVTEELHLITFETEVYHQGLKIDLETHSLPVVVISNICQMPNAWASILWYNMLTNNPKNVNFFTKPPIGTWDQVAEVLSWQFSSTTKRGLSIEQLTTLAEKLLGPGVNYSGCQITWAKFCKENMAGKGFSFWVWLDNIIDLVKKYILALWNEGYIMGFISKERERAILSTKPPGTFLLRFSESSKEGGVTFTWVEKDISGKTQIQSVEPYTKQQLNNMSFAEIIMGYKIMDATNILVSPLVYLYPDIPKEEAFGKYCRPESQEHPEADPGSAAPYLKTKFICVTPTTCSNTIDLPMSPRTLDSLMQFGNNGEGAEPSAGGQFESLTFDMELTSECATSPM

`CC(C)OC(=O)[C@H](C)NP(=O)(Cc1ccc2sc(C(=O)N[C@H]3C[C@@H]4C[C@@H]4C[C@H]4CC[C@@H](C(=O)N5CC(C(=O)N6CCOCC6)C5)N4C3=O)cc2c1)OCC(F)(F)F` (stereo partly drawn) [Compound 200, isopropyl (((2-(((3S,6S,7aS, 8aR,9aR)-3-(3-(morpholine-4-carbonyl)azetidine-1-carbonyl)-5-oxodecahydro-1H-cyclopropa [d]pyrrolo[1,2-a]azocin-6-yl)carbamoyl)benzo[b]thiophen-5-yl)methyl) (2,2,2-trifluoroethoxy)phosphoryl)-L-alaninate]: the IC50 under setting [1] was in the range of 0.1 to 1 µM.

Consider `Cn1cnnc1C1CN(C(=O)[C@@H]2CC[C@@H]3C[C@@H]4C[C@@H]4C[C@H](NC(=O)c4cc5cc(C(F)(F)P(=O)(OCCSC(=O)C(C)(C)C)OCCSC(=O)C(C)(C)C)ccc5s4)C(=O)N32)C1` [Compound 201, S,S′-((((difluoro(2-(((3S,6S,7aR, 8aS,9aR)-3-(3-(4-methyl-4H-1,2,4-triazol-3-yl)azetidine-1-carbonyl)-5-oxodecahydro-1H-cyclopropa[d]pyrrolo[1,2-a]azocin-6-yl)carbamoyl)benzo[b]thiophen-5-yl)methyl)phosphoryl)bis(oxy))bis(ethane-2,1-diyl)) bis(2,2-dimethyl-propanethioate)], for which the IC50 under setting [1] is under 0.1 µM.

`COC(=O)[C@H](C)NP(=O)(Cc1ccc2sc(C(=O)N[C@H]3C[C@@H]4C[C@@H]4C[C@H]4CC[C@@H](C(=O)N5CC(C(=O)N6CCOCC6)C5)N4C3=O)cc2c1)Oc1ccccc1` (stereo partly drawn) [Compound 216, methyl (((2-(((3S,6S,7aS, 8aR,9aR)-3-(3-(morpholine-4-carbonyl)azetidine-1-carbonyl)-5-oxodecahydro-1H-cyclopropa [d]pyrrolo[1,2-a]azocin-6-yl)carbamoyl)benzo[b]thiophen-5-yl)methyl) (phenoxy)phosphoryl)-L-alaninate]: the IC50 under setting [1] lay in the range of 0.1 to 1 µM.

In the case of `CCCOC(=O)[C@H](C)NP(=O)(Cc1ccc2sc(C(=O)N[C@H]3C[C@@H]4C[C@@H]4C[C@H]4CC[C@@H](C(=O)N5CC(C(=O)N6CCOCC6)C5)N4C3=O)cc2c1)Oc1ccccc1` (stereo partly drawn) [Compound 217, propyl (((2-(((3S,6S,7aS, 8aR,9aR)-3-(3-(morpholine-4-carbonyl)azetidine-1-carbonyl)-5-oxodecahydro-1H-cyclopropa[d]pyrrolo[1,2-a]azocin-6-yl)carbamoyl)benzo[b]thiophen-5-yl)methyl) (phenoxy)phosphoryl)-L-alaninate], the IC50 under setting [1] fell in the range of 0.1 to 1 µM.

Consider `CC(C)(C)C(=O)SCCOP(=O)(OCCSC(=O)C(C)(C)C)C(F)(F)c1ccc2ccc(C(=O)N[C@H]3C[C@@H]4C[C@@H]4C[C@H]4CC[C@@H](C(=O)N5CC(n6ccnc6)C5)N4C3=O)cc2c1` [Compound 221, S,S′-(((((7-(((3S,6S,7aS, 8aR,9aR)-3-(3-(1H-imidazol-1-yl)azetidine-1-carbonyl)-5-oxodecahydro-1H-cyclopropa[d]pyrrolo[1,2-a]azocin-6-yl)carbamoyl)naphthalen-2-yl)difluoromethyl)phosphoryl)bis(oxy))bis(ethane-2,1-diyl)) bis(2,2-dimethyl-propanethioate)], for which the IC50 under setting [1] is under 0.1 µM.

As for `CC(C)OC(=O)OCOP(=O)(Cc1ccc2sc(C(=O)N[C@H]3C[C@H]4C[C@H]4C[C@H]4CC[C@@H](C(=O)N[C@@H]5CCN(c6cccnc6)C5)N4C3=O)cc2c1)OCOC(=O)OC(C)C` [Compound 226, diisopropyl (((((2-(((3S,6S,7aR, 8aS,9aR)-5-oxo-3-(((R)-1-(pyridin-3-yl)pyrrolidin-3-yl)carbamoyl)decahydro-1H-cyclopropa[d]pyrrolo[1,2-a]azocin-6-yl)carbamoyl)benzo[b]thiophen-5-yl)methyl)phosphoryl)bis(oxy))bis(methylene)) bis(carbonate)], the IC50 under setting [1] was under 0.1 µM.

In the case of `CC(C)(C)C(=O)SCCOP(=O)(OCCSC(=O)C(C)(C)C)C(F)(F)c1ccc2sc(C(=O)N[C@H]3C[C@@H]4C[C@@H]4C[C@H]4CC[C@@H](C(=O)N5CC(F)(c6ccc(C#N)cc6)C5)N4C3=O)cc2c1` [Compound 227, S,S′-(((((2-(((3S,6S,7aS, 8aR,9aR)-3-(3-(4-cyanophenyl)-3-fluoroazetidine-1-carbonyl)-5-oxodecahydro-1H-cyclopropa[d]pyrrolo[1,2-a]azocin-6-yl)carbamoyl)benzo[b]thiophen-5-yl)difluoromethyl)phosphoryl)bis(oxy))bis(ethane-2,1-diyl)) bis(2,2-dimethyl-propanethioate)], under setting [1], the IC50 was under 0.1 µM.

For the compound `CC(C)CC(=O)SCCOP(=O)(OCCSC(=O)CC(C)C)C(F)(F)c1ccc2sc(C(=O)N[C@H]3C[C@@H]4C[C@@H]4C[C@H]4CC[C@@H](C(=O)N5CC(c6ncccn6)C5)N4C3=O)cc2c1` [Compound 229, S,S′-((((difluoro(2-(((3S,6S,7aS, 8aR,9aR)-5-oxo-3-(3-(pyrimidin-2-yl)azetidine-1-carbonyl)decahydro-1H-cyclopropa[d]pyrrolo[1,2-a]azocin-6-yl)carbamoyl)benzo[b]thiophen-5-yl)methyl)phosphoryl)bis(oxy))bis(ethane-2,1-diyl)) bis(3-methylbutane thioate)], the IC50 under setting [1] is under 0.1 µM.

In turn, `CCCOC(=O)[C@H](C)NP(=O)(Cc1ccc2sc(C(=O)N[C@H]3C[C@H]4C[C@H]4CC4CC[C@@H](C(=O)N[C@H]5CN(C(C)=O)C[C@@H]5F)N4C3=O)cc2c1)Oc1ccccc1` (stereo partly drawn) [Compound 245, propyl(((2-(((3S,6S,7aR,8aS,9aR)-3-(((3S,4S)-1-acetyl-4-fluoropyrrolidin-3-yl)carbamoyl)-5-oxodecahydro-1H-cyclopropa[d]pyrrolo[1,2-a]azocin-6-yl)carbamoyl)benzo[b]thiophen-5-yl)methyl)(phenoxy)phosphoryl)-L-alaninate] registered an IC50 of 1 to 3 µM.

As to `CCCOC(=O)[C@H](C)NP(=O)(Oc1ccccc1)C(F)c1ccc2sc(C(=O)N[C@H]3C[C@H]4C[C@H]4C[C@H]4CC[C@@H](C(=O)N5CC(c6cnccc6F)C5)N4C3=O)cc2c1` (stereo partly drawn) [Compound 249, propyl ((fluoro(2-(((3S,6S,7aR,8aS,9aR)-3-(3-(4-fluoropyridin-3-yl)azetidine-1-carbonyl)-5-oxodecahydro-1H-cyclopropa[d]pyrrolo[1,2-a]azocin-6-yl)carbamoyl)benzo[b]thiophen-5-yl)methyl)(phenoxy)phosphoryl)-L-alaninate], the IC50 under setting [1] was under 0.1 µM.

For `CCCOC(=O)[C@H](C)NP(=O)(Cc1ccc2sc(C(=O)N[C@H]3C[C@H]4C[C@H]4C[C@H]4CC[C@@H](C(=O)N5CC(c6cnccc6F)C5)N4C3=O)cc2c1)Oc1ccccc1` (stereo partly drawn) [Compound 251, propyl(((2-(((3S,6S,7aR,8aS,9aR)-3-(3-(4-fluoropyridin-3-yl)azetidine-1-carbonyl)-5-oxodecahydro-1H-cyclopropa[d]pyrrolo[1,2-a]azocin-6-yl)carbamoyl)benzo[b]thiophen-5-yl)methyl)(phenoxy)phosphoryl)-L-alaninate], the IC50 is under 0.1 µM.

`CCCOC(=O)[C@H](C)NP(=O)(Oc1ccccc1)C(F)c1ccc2sc(C(=O)N[C@H]3C[C@H]4C[C@H]4C[C@H]4CC[C@@H](C(=O)N[C@H]5CN(C(C)=O)C[C@@H]5F)N4C3=O)cc2c1` (stereo partly drawn) [Compound 255, propyl(((2-(((3S,6S,7aR,8aS,9aR)-3-(((3S,4S)-1-acetyl-4-fluoropyrrolidin-3-yl)carbamoyl)-5-oxodecahydro-1H-cyclopropa[d]pyrrolo[1,2-a]azocin-6-yl)carbamoyl)benzo[b]thiophen-5-yl)fluoromethyl)(phenoxy)phosphoryl)-L-alaninate] had an IC50 of 0.1 to 1 µM.

As to `CCCOC(=O)[C@H](C)NP(=O)(Oc1ccccc1)C(F)c1ccc2sc(C(=O)N[C@H]3C[C@@H]4C[C@@H]4C[C@H]4CC[C@@H](C(=O)N5CC(c6cnccc6F)C5)N4C3=O)cc2c1` (stereo partly drawn) [Compound 263, propyl ((fluoro(2-(((3S,6S,7aS,8aR,9aR)-3-(3-(4-fluoropyridin-3-yl)azetidine-1-carbonyl)-5-oxodecahydro-1H-cyclopropa[d]pyrrolo[1,2-a]azocin-6-yl)carbamoyl)benzo[b]thiophen-5-yl)methyl)(phenoxy)phosphoryl)-L-alaniante], the IC50 under setting [1] is under 0.1 µM.

In the case of `CCCOC(=O)[C@H](C)NP(=O)(Cc1ccc2sc(C(=O)N[C@H]3C[C@@H]4C[C@@H]4C[C@H]4CC[C@@H](C(=O)N5CC(c6cnccc6F)C5)N4C3=O)cc2c1)Oc1ccccc1` (stereo partly drawn) [Compound 264, propyl (((2-(((3S,6S,7aS,8aR,9aR)-3-(3-(4-fluoropyridin-3-yl)azetidine-1-carbonyl)-5-oxodecahydro-1H-cyclopropa[d]pyrrolo[1,2-a]azocin-6-yl)carbamoyl)benzo[b]thiophen-5-yl)methyl)(phenoxy)phosphoryl)-L-alaninate], the IC50 under setting [1] was under 0.1 µM.

Regarding `CCCOC(=O)[C@H](C)NP(=O)(Oc1ccccc1)C(F)c1ccc2sc(C(=O)N[C@H]3C[C@H]4C[C@H]4C[C@H]4CC[C@@H](C(=O)N[C@H]5CN(c6cccnc6)C[C@@H]5F)N4C3=O)cc2c1` (stereo partly drawn) [Compound 268, propyl ((fluoro(2-(((3S,6S,7aR,8aS,9aR)-3-(((3S,4S)-4-fluoro-1-(pyridin-3-yl)pyrrolidin-3-yl)carbamoyl)-5-oxodecahydro-1H-cyclopropa[d]pyrrolo[1,2-a]azocin-6-yl)carbamoyl)benzo[b]thiophen-5-yl)methyl)(phenoxy)phosphoryl)-L-alaninate], the IC50 under setting [1] is under 0.1 µM.

As to `CCCOC(=O)[C@H](C)NP(=O)(Cc1ccc2sc(C(=O)N[C@H]3C[C@H]4C[C@H]4C[C@H]4CC[C@@H](C(=O)N[C@H]5CN(c6cccnc6)C[C@@H]5F)N4C3=O)cc2c1)Oc1ccccc1` (stereo partly drawn) [Compound 269, propyl(((2-(((3S,6S,7aR,8aS,9aR)-3-(((3S,4S)-4-fluoro-1-(pyridin-3-yl)pyrrolidin-3-yl)carbamoyl)-5-oxodecahydro-1H-cyclopropa[d]pyrrolo[1,2-a]azocin-6-yl)carbamoyl)benzo[b]thiophen-5-yl)methyl)(phenoxy)phosphoryl)-L-alaniante], the IC50 under setting [1] is under 0.1 µM.
